Experimental data taken from PMC11477134 (International Journal of Molecular Sciences, 2024).
Read-outs that look alike come from different tables or passages of the source.

Tests used:
hBACE1 = molecular target: T1, hBACE1 (Homo sapiens, UniProt P56817); test: hBACE1 inhibitory activity (FRET assay) and enzyme kinetics; assay type: biochemical
T1 construct: purchased Invitrogen (Pan Vera, Madison, WI, USA)
Description: The FRET-based assay was used to evaluate the anti-hBACE1 activity and was performed according to the manufacturer’s instructions. […] The percentage BACE1 inhibitory activity was calculated using the following formula:Inhibition (%) = [1 − (S − S0)/(C − C0)] × 100(1) where C is the control fluorescence without the sample after 60 min of incubation, C0 is the control fluorescence at time 0, S is the test sample fluorescence after 60 min of incubation, and S0 is the test sample fluorescence at time 0.
(§1) Dixon plots were obtained in the presence of different concentrations of substrates for AD-related target enzymes. Michaelis–Menten and Lineweaver–Burk plots were constructed in the absence or presence of various concentrations of honokiol.

hQC = molecular target: T2, hQC (Homo sapiens, UniProt Q16769); test: hQC inhibitory activity (fluorometric assay) and enzyme kinetics; assay type: biochemical
T2 construct: purchased R&D Systems (Minneapolis, MN, USA)
T2 sequence (Q16769 29-361): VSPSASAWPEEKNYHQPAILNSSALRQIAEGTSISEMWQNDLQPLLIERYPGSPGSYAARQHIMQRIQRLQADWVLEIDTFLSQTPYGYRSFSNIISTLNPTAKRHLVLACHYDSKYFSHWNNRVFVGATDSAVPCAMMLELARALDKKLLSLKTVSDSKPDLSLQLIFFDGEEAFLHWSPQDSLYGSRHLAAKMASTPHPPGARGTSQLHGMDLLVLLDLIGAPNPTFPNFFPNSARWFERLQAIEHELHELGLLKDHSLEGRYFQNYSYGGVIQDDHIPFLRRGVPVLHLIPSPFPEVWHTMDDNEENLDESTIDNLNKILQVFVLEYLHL
Description: The inhibitory activity of hQC was evaluated using H-Gln-AMC hydrobromide (400 μM) as the substrate in a fluorometric assay. The buffer consisted of 25 mM HEPES (pH 7.0; adjusted with HCl). The hQC (10 μg/mL) and its auxiliary enzyme pGAPase (50 units) were pre-diluted 1:250 in HEPES. A typical reaction mixture consisted of the substrate, test compounds, and pGAPase. After incubation in black 96-well plates for 10 min at 37 °C, the reaction was initiated by adding hQC solution. The fluorescence intensity of the samples was measured at excitation/emission wavelengths of 380/460 nm, which correlated with the amount of AMC, the end product of the enzymatic process.
(§2) Dixon plots were obtained in the presence of different concentrations of substrates for AD-related target enzymes. Michaelis–Menten and Lineweaver–Burk plots were constructed in the absence or presence of various concentrations of honokiol. The Enzyme Kinetic™ module of SigmaPlot™ version 12.3 (Systat Software, Inc., San Jose, CA, USA) was used to calculate kinetic parameters, such as the Ki, Vmax, and Km.

hGSK-3β = molecular target: T3, hGSK-3β (Homo sapiens, UniProt P49841); test: hGSK-3β activity (ADP-Glo/Kinase-Glo assay) and enzyme kinetics; assay type: biochemical
T3 construct: purchased Promega (Madison, WI, USA)
T3 sequence (P49841 whole entry): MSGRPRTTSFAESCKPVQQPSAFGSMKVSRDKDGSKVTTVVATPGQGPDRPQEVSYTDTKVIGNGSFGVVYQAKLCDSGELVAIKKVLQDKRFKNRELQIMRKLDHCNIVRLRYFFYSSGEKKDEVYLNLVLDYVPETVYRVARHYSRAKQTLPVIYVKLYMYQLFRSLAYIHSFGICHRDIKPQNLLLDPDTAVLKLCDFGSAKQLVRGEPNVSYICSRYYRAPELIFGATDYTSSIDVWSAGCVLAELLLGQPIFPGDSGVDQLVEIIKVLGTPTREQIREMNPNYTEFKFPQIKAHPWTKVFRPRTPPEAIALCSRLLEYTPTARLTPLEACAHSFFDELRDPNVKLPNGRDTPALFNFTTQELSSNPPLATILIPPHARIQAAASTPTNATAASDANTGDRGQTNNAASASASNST
Description: Inhibition of hGSK-3β activity was evaluated using the Kinase-Glo assay. To initiate the reaction, test compound and hGSK-3β (20 ng) were added to each well of a 384-well black plate, followed by the addition of 20 μL of assay buffer containing GSM (hGSK-3β substrate peptide, 25 μM) and ATP (final concentration, 1 μM). […] The reaction mixture was then incubated at 37 °C for 30 min, followed by the addition of the ADP-GloTM reagent (20 μL) to terminate the enzymatic reaction and deplete the remaining ATP. The kinase detection reagent was added to the well plate and glow-type luminescence was recorded using a Synergy H1 microplate reader.
as §2

Aβ1-42 = Aβ1-42 (Homo sapiens, UniProt P05067); test: Anti-Aβ1-42 aggregation (preliminary study); assay type: biochemical; conditions: compared with honokiol
Sequence of Aβ1-42 (P05067 672-713 limits assumed): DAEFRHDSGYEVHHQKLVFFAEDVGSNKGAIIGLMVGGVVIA

AChE = AChE (Homo sapiens, UniProt P22303); conditions: Dixon and Lineweaver–Burk plots
Sequence of AChE (P22303 32-614): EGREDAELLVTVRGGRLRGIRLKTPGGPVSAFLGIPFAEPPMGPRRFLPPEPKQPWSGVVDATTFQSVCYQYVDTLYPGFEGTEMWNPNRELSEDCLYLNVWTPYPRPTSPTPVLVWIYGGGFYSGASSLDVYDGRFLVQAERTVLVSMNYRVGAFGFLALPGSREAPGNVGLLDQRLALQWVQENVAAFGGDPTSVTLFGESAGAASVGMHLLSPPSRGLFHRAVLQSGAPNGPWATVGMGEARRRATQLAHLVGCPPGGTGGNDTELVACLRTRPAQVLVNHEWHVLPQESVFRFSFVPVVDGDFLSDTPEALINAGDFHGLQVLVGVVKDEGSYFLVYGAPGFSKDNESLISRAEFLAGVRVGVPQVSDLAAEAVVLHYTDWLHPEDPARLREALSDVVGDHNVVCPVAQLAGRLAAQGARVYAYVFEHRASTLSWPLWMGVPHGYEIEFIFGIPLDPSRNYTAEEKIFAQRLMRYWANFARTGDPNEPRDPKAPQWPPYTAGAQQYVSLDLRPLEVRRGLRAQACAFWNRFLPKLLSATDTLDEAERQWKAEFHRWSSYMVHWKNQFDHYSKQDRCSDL
Description: The AChE inhibitory activity was measured spectrophotometrically using the modified Ellman method. First, AChE (0.8 U/mL) was added to a mixture containing sodium phosphate buffer (0.1 M; pH 8.0), DTNB (5 mM), and a test sample, followed by incubation at 37 °C for 15 min in 96-well microplates. Next, ACTI (500 µM; substrate for AChE) was added to the mixture to activate the reaction.
as §1

[1] = set-up: method as in PMID 29925102; conditions: use of honokiol or herbal formulations containing it; cited from earlier work
[2] = mean ± S.D. of triplicate experiments, read-out: IC50 hQC
[3] = mean ± S.D. of triplicate experiments, read-out: IC50 hGSK-3β
[4] = Dixon and Lineweaver–Burk plots

T1 sequence (P56817 46-501): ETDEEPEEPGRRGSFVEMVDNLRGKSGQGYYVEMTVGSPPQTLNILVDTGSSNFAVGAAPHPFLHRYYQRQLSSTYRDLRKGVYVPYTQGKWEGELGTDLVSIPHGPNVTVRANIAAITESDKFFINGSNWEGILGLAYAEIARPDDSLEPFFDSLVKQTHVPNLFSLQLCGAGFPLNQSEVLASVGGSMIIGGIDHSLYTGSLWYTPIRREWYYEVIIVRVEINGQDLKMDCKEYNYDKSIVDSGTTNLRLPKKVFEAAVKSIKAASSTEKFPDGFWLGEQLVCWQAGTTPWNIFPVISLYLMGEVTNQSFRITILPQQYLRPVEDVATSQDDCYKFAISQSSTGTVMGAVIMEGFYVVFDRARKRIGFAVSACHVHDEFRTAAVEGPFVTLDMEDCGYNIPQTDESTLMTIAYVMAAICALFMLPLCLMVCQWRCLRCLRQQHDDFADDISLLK

C=CCc1ccc(O)c(-c2cc(CC=C)ccc2O)c1 [Magnolol (51), 5,5′-diallyl-2,2′-dihydroxybiphenyl]
IC50 (hBACE1; mean ± S.D. of triplicate experiments, read-out: IC50 hBACE1): > 100 µM
IC50 (hQC; [2]): > 100 µM
IC50 (hGSK-3β; [3]): > 100 µM
anti-Aβ1-42 aggregation effects (Aβ1-42): lower anti-Aβ1-42 aggregation effects than that of honokiol

C[C@@H]1O[C@@H](OC[C@H]2O[C@@H](Oc3c(-c4ccc(O)c(O)c4)oc4cc(O)cc(O)c4c3=O)[C@H](O)[C@@H](O)[C@@H]2O)[C@H](O)[C@H](O)[C@H]1O [rutin, reference compound]
IC50 (hGSK-3β; [3]): 10.8 µM

Oc1ccc(/C=C/c2cc(O)cc(O)c2)cc1 [resveratrol, reference compound]
IC50 (hQC; [2]): 30.9 µM

C=CCc1ccc(O)c(-c2ccc(O)c(CC=C)c2)c1 [Honokiol (39), 3,5′-diallyl-4,2′-dihydroxybiphenyl]
IC50 (hBACE1): 20.6 ± 0.8 µM
Ki (hBACE1): 27.3 µM
Inhibition Mode hBACE1 (hBACE1; [4]): Non-competitive
Inhibition Mode AChE (AChE): Non-competitive
IC50 (hQC): 90.7 ± 1.07 µM
Ki (hQC): 49.4 µM
Inhibition Mode hQC (hQC; [4]): Competitive
IC50 (hGSK-3β): 6.7 ± 0.03 µM
Ki (hGSK-3β): 9.8 µM
Inhibition Mode hGSK-3β (hGSK-3β; [4]): Non-competitive
side effects in humans [1]: no side effects have been reported in humans
